This passage reports TGI and GI50 results from PubChem BioAssay (NCI).

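Dose response: 5 concentrations. Exposure: 48 h. Format: 96-well plates. Endpoint: linear interpolation; highest concentration if not reached. The concentration for 50% growth inhibition is given as GI50. Definition used: TGI = concentration required for complete inhibition of growth.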

Common to all, as to assay: NCI-60 cell line screen, 48 h
Assay [1] relates to M14 melanoma.
The test system of assay [2] is SN12C renal.
In assay [3] the test system is KM12 colon.
Assay [4] has as its system HL-60(TB) leukemia.
The test system of assay [5] is OVCAR-3 ovarian.
Assay [6] relates to SR leukemia.
The test system of assay [7] is SK-MEL-2 melanoma.
For assay [8], the system named is NCI/ADR-RES ovarian.
Assay [9] deals with MCF7 breast.
The test system of assay [10] is HOP-92 NSCLC.

`c1ccc2c(c1)CCc1cc3cc4c(nc3nc1-2)-c1ccccc1CC4`: the TGI in [1], in assay [2], in [3], in assay [4], in assay [5] and in assay [6] was above 100 µM throughout.
Consider `COc1cc(/C=C2\N=C(c3ccccc3)N(c3nc4c(OC)ccc(OC)c4s3)C2=O)cc(OC)c1OC`, for which the TGI in [1], in [2], in [3], in [4], in assay [7] and in assay [8] was above 100 µM throughout. For the same molecule, the TGI in [5], in assay [9] and in assay [10] was above 100 µM each time.
As for `CCSC1=C(C)N(C=NC(C)(C)C)CC1`, the TGI in assay [1], in assay [2], in assay [3], in assay [4], in [7] and in [5] was above 100 µM throughout. Also, the TGI in assay [6] and in assay [10] was above 100 µM throughout.
`CCCNC(C#N)c1ccc(C(C#N)NCCC)cc1` (stereo not given): the TGI in [1], in assay [2], in [3], in assay [4], in assay [7] and in [8] was above 100 µM in each case. Also, the TGI in assay [5] and in assay [10] was above 100 µM throughout.
Take `O=C1NC2(CCCCC2)C2CCCCCC12` (stereo not given): the TGI in [1], in assay [2], in assay [3], in [4], in assay [5] and in assay [6] was above 100 µM each time.
Take `Oc1[nH]c2ccccc2c1N=Nc1nc(-c2ccc(Cl)c(Cl)c2)cs1`: the TGI is above 100 µM in [1]; above 100 µM in assay [2]; above 100 µM in [3]; 0.718 µM in assay [4]; above 100 µM in assay [7]; above 100 µM in assay [8]. Besides, the TGI in assay [5], in [9] and in assay [10] was above 100 µM each time.
Turning to `COc1cccc(/C=N/[N-]C(N)=O)c1[O-].[Ni+2].[OH3+].c1cnc2c(c1)ccc1cccnc12`, the TGI in assay [1], in assay [2], in assay [3], in assay [4], in assay [7] and in assay [5] was above 100 µM each time. Further, the TGI in assay [6] and in assay [10] was above 100 µM throughout. Also, the GI50 in [4] is 69.5 µM.
Regarding `COc1ccc2c(c1)n([O-])c(C#N)c(N1CCN(c3ccc([N+](=O)[O-])cc3)CC1)[n+]2=O`, the TGI in [1] is above 100 µM; in assay [2], above 100 µM; in [3], above 79.1 µM; in assay [4], 29.1 µM; in assay [7], above 100 µM; in assay [8] it was 11.8 µM. Besides, in [5], the TGI is above 100 µM.
As for `C=C1C(=O)OCC2C(C(=O)O)=CC3C(C)C(C)=CC123` (stereo not given), the TGI in assay [2] worked out at 23.6 µM; in assay [3] it was 31.2 µM; in [4] it was 26 µM; in [7], 15.1 µM; in assay [8] it was 27.3 µM; in assay [5], 31.3 µM. Besides, the TGI was 23.9 µM in assay [9] and 25.5 µM in assay [10].
In the case of `NC(N)=NNC(=O)CCCCCCCC(=O)NN=C(N)N`, the TGI in assay [1], in assay [2], in assay [3], in assay [4] and in [7] was above 100 µM throughout.
In the case of `COc1cccc(N(CN2CC=CC2=O)C(C)=O)c1`, the TGI in assay [1], in assay [2], in assay [3], in assay [4], in assay [7] and in [8] was above 100 µM in each case. For the same molecule, the TGI in assay [5], in assay [9] and in assay [10] was above 100 µM each time.
For `Cc1ccc(C(C2C(=O)N(C)C(=O)N(C)C2=O)C(F)(F)C(=O)N(C)C)cc1` (stereo not given), the TGI in [1], in assay [3], in assay [7], in assay [8], in assay [5] and in assay [9] was above 100 µM in each case. For the same molecule, in assay [10], the TGI was above 100 µM.
For the molecule `CCN(c1ccc(Br)cc1)c1c(Br)c(=O)nc2ccccn12`, the TGI in assay [1], in [2], in [3], in [7], in assay [5] and in assay [6] was above 100 µM in each case. In [10], the TGI is above 100 µM.
`CN(C)Cc1cc(O)c(O)c(CN(C)C)c1`: the TGI in assay [1] is 59.3 µM; in assay [2] it was above 100 µM; in [3], above 100 µM; in [4], 92 µM; in [7], above 100 µM; in assay [8], 65.9 µM. Further, the TGI in assay [5], in assay [9] and in [10] was above 100 µM throughout.
Take `O=c1cc(N2CCCC2)[nH]c(=O)n1-c1cccc(C(F)(F)F)c1`: the TGI in assay [1], in assay [2], in assay [3], in [4], in assay [7] and in assay [8] was above 100 µM throughout. In addition, the TGI in assay [5], in assay [9] and in [10] was above 100 µM each time.
On to `Cc1cccc(NC(=O)C(=O)C(C(=O)c2ccccc2F)C2OC(=O)c3ccccc32)c1Cl` (stereo not given), for which the TGI in assay [1] is above 100 µM; in assay [2], above 100 µM; in assay [3], 94.5 µM; in assay [4], 56.2 µM; in assay [7], above 100 µM; in assay [6], above 100 µM. This molecule registered a TGI in [10] above 100 µM.
Regarding `CC(C)(C)C(=O)ON1N=NC2C3CC(OCc4ccccc4)(OCc4ccccc4)C(O3)C21` (stereo not given), the TGI is 85.7 µM in assay [1]; 39.3 µM in assay [2]; 55.4 µM in [3]; 19 µM in [4]; 34.3 µM in assay [7]; 35.9 µM in assay [5]. This molecule registered a TGI in assay [10] of 27.2 µM.
